Results from PubChem BioAssay (NCI).
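Each compound was tested at five concentrations against cells in 96-well plates for 48 hours. Here, GI50 denotes the concentration required for 50% inhibition of growth. Definition used: TGI = concentration required for complete inhibition of growth.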

What was measured:
Assay in all cases: NCI tumour cell line growth inhibition, 48 h
HOP-62 NSCLC = tested on: HOP-62 NSCLC
SK-MEL-5 melanoma = tested on: SK-MEL-5 melanoma
HCC-2998 colon = tested on: HCC-2998 colon
TK-10 renal = tested on: TK-10 renal
OVCAR-5 ovarian = tested on: OVCAR-5 ovarian
SK-MEL-2 melanoma = tested on: SK-MEL-2 melanoma
CCRF-CEM leukemia = tested on: CCRF-CEM leukemia
SF-539 CNS = tested on: SF-539 CNS
OVCAR-4 ovarian = tested on: OVCAR-4 ovarian
A498 renal = tested on: A498 renal

COc1cnc2c(c1)C(=O)c1c-2n(CCCN2CCNCC2)c(=O)c2cc([N+](=O)[O-])ccc12
GI50 (HOP-62 NSCLC): 0.065 µM | TGI (HOP-62 NSCLC): 0.572 µM | GI50 (SK-MEL-5 melanoma): 0.403 µM | TGI (SK-MEL-5 melanoma): 1.62 µM | GI50 (HCC-2998 colon): 1.11 µM | TGI (HCC-2998 colon): 2.36 µM | GI50 (TK-10 renal): 1.11 µM | TGI (TK-10 renal): 2.39 µM | GI50 (OVCAR-5 ovarian): 1.02 µM | TGI (OVCAR-5 ovarian): 2.58 µM | GI50 (SK-MEL-2 melanoma): 2.07 µM | TGI (SK-MEL-2 melanoma): 3.95 µM | GI50 (CCRF-CEM leukemia): 0.143 µM | TGI (CCRF-CEM leukemia): 1.78 µM | GI50 (SF-539 CNS): 0.354 µM | TGI (SF-539 CNS): 1.47 µM | GI50 (OVCAR-4 ovarian): 1.24 µM | TGI (OVCAR-4 ovarian): 3.01 µM | GI50 (A498 renal): 0.0863 µM | TGI (A498 renal): 2.19 µM

C=C1C(=O)O[C@H]2[C@H]1CC/C(COC(=O)NCCCCCCCCNC(=O)OC/C1=C/CC[C@@]3(C)O[C@H]3[C@H]3OC(=O)C(=C)[C@@H]3CC1)=C\CC[C@@]1(C)O[C@@H]21
GI50 (HOP-62 NSCLC): 1.53 µM | TGI (HOP-62 NSCLC): 3.49 µM | GI50 (SK-MEL-5 melanoma): 1.21 µM | TGI (SK-MEL-5 melanoma): 2.59 µM | GI50 (HCC-2998 colon): 1.2 µM | TGI (HCC-2998 colon): 2.52 µM | GI50 (TK-10 renal): 0.284 µM | TGI (TK-10 renal): 0.855 µM | GI50 (OVCAR-5 ovarian): 0.269 µM | TGI (OVCAR-5 ovarian): 0.912 µM | GI50 (SK-MEL-2 melanoma): 0.601 µM | TGI (SK-MEL-2 melanoma): 2.8 µM | GI50 (CCRF-CEM leukemia): 0.255 µM | TGI (CCRF-CEM leukemia): 0.837 µM | GI50 (SF-539 CNS): 0.235 µM | TGI (SF-539 CNS): 0.599 µM | GI50 (OVCAR-4 ovarian): 0.521 µM | TGI (OVCAR-4 ovarian): 1.86 µM | GI50 (A498 renal): 1.69 µM | TGI (A498 renal): 3.14 µM

CCC[CH2][Pb]([Cl])([CH2]CCC)[CH2]CCC
GI50 (HOP-62 NSCLC): 0.128 µM | TGI (HOP-62 NSCLC): 0.258 µM | GI50 (SK-MEL-5 melanoma): 0.0534 µM | TGI (SK-MEL-5 melanoma): 0.128 µM | GI50 (HCC-2998 colon): 0.0439 µM | TGI (HCC-2998 colon): 0.136 µM | GI50 (TK-10 renal): 0.0317 µM | TGI (TK-10 renal): 0.0913 µM | GI50 (OVCAR-5 ovarian): 0.034 µM | TGI (OVCAR-5 ovarian): 0.134 µM | GI50 (SK-MEL-2 melanoma): 0.0229 µM | TGI (SK-MEL-2 melanoma): 0.0724 µM | GI50 (CCRF-CEM leukemia): 0.0553 µM | TGI (CCRF-CEM leukemia): 1.15 µM | GI50 (SF-539 CNS): 0.0338 µM | TGI (SF-539 CNS): 0.0892 µM | GI50 (OVCAR-4 ovarian): 0.0472 µM | TGI (OVCAR-4 ovarian): 0.184 µM | GI50 (A498 renal): 0.0483 µM | TGI (A498 renal): 0.148 µM

COC(=O)/C(=N\NC(N)=O)C(C(=O)C=C(C)C)C(=O)C(=O)Nc1ccc(Cl)c(Cl)c1 (centres undefined)
TGI (HOP-62 NSCLC): > 100 µM | TGI (SK-MEL-5 melanoma): > 100 µM | TGI (HCC-2998 colon): > 100 µM | TGI (TK-10 renal): > 100 µM | TGI (OVCAR-5 ovarian): > 100 µM | TGI (SK-MEL-2 melanoma): > 100 µM | TGI (CCRF-CEM leukemia): > 100 µM | TGI (SF-539 CNS): > 100 µM | TGI (OVCAR-4 ovarian): > 100 µM | TGI (A498 renal): > 100 µM

COc1cc2c(cc1C)NC(=O)/C2=C\c1c[nH]c2ccccc12
GI50 (HOP-62 NSCLC): 17.9 µM | TGI (HOP-62 NSCLC): 56.8 µM | GI50 (SK-MEL-5 melanoma): 14.9 µM | TGI (SK-MEL-5 melanoma): 30.5 µM | GI50 (HCC-2998 colon): 21.7 µM | TGI (HCC-2998 colon): 71.1 µM | GI50 (TK-10 renal): 14.1 µM | TGI (TK-10 renal): 46.5 µM | GI50 (OVCAR-5 ovarian): 13.5 µM | TGI (OVCAR-5 ovarian): 42.7 µM | GI50 (SK-MEL-2 melanoma): 4.04 µM | TGI (SK-MEL-2 melanoma): 25 µM | GI50 (CCRF-CEM leukemia): 10.3 µM | TGI (CCRF-CEM leukemia): > 100 µM | GI50 (SF-539 CNS): 14 µM | TGI (SF-539 CNS): 31.9 µM | GI50 (OVCAR-4 ovarian): 12.3 µM | TGI (OVCAR-4 ovarian): 40.5 µM | GI50 (A498 renal): 11.2 µM | TGI (A498 renal): 26.9 µM

COc1ccc(N(C)c2nc(Cl)nc3cnn(C)c23)cc1
GI50 (HOP-62 NSCLC): < 0.0118 µM | TGI (HOP-62 NSCLC): > 100 µM | GI50 (SK-MEL-5 melanoma): < 0.01 µM | TGI (SK-MEL-5 melanoma): 0.0874 µM | GI50 (HCC-2998 colon): 0.0285 µM | TGI (HCC-2998 colon): > 59.7 µM | GI50 (TK-10 renal): > 68.6 µM | TGI (TK-10 renal): > 100 µM | GI50 (OVCAR-5 ovarian): 0.0379 µM | TGI (OVCAR-5 ovarian): > 100 µM | GI50 (SK-MEL-2 melanoma): < 0.01 µM | TGI (SK-MEL-2 melanoma): > 100 µM | GI50 (CCRF-CEM leukemia): < 0.0146 µM | TGI (CCRF-CEM leukemia): > 100 µM | GI50 (SF-539 CNS): < 0.01 µM | GI50 (OVCAR-4 ovarian): 0.0795 µM | TGI (OVCAR-4 ovarian): > 100 µM | GI50 (A498 renal): < 0.01 µM | TGI (A498 renal): 0.178 µM

Cc1ccc(S(=O)(=O)N2CCc3ccc(O)c4c3C2Cc2ccc3c(c2-4)OCO3)cc1 (centres undefined)
GI50 (HOP-62 NSCLC): 1.89 µM | TGI (HOP-62 NSCLC): 27.9 µM | GI50 (SK-MEL-5 melanoma): 0.486 µM | TGI (SK-MEL-5 melanoma): 2.18 µM | GI50 (HCC-2998 colon): 1.56 µM | TGI (HCC-2998 colon): 5.24 µM | GI50 (TK-10 renal): 3.48 µM | TGI (TK-10 renal): 29.2 µM | GI50 (OVCAR-5 ovarian): 3.19 µM | TGI (OVCAR-5 ovarian): 45.8 µM | GI50 (SK-MEL-2 melanoma): 1.34 µM | TGI (SK-MEL-2 melanoma): 7.33 µM | GI50 (CCRF-CEM leukemia): 0.847 µM | TGI (CCRF-CEM leukemia): > 27.6 µM | GI50 (SF-539 CNS): 1.02 µM | TGI (SF-539 CNS): 5.26 µM | GI50 (OVCAR-4 ovarian): 0.934 µM | TGI (OVCAR-4 ovarian): 33.3 µM | GI50 (A498 renal): 0.898 µM | TGI (A498 renal): 7.09 µM
